Assay results published in patent publication US20190167579A1, “ITRACONAZOLE DRY POWDERS” (priority 2017, published 2019).

Tested on: Calu-3 cell line
Test: cNGI integrated dissolution and permeability on Calu-3 monolayers
Type: in vitro ADME
Description: A bio-relevant dissolution testing system was used based on mimicking the air-liquid interface at the respiratory epithelium interface using a cell-based in vitro method. A modified next generation impactor that incorporated cell culture plates onto collection stages (cNGI) was used to uniformly deposit materials onto the cell cultures. Dissolution and permeation of the drug through the epithelial cell monolayer was measured.
Epithelial cell monolayers grown at the air-liquid interface in Snapwell™ (Corning Costar, Massachusetts, USA) permeable insert were integrated into the cNGI. […] The transepithelial electrical resistance (TEER) was measured using an EVOM2 chopstick electrode connected to an EVOM2 Epithelial Voltohmmeter (World Precision Instruments, Hitchin, United Kingdom) and monolayers with a TEER above 450 Ω·cm^2 were deemed confluent. […]
Post-dosing of the dose on to the Snapwells from stage 4, the Snapwells were transferred to 6-well plates, which contained 2mL of PBS pH 7.4±2.0% SDS maintained at 37° C. Basolateral samples were taken at different time points and drug content was measured on an Agilent (Santa Clara, Calif., USA) 1260 Infinity series HPLC. Total dose delivered to the cells was measured from the total amount of drug dissolved over the time-course and from lysing cells post experimentation. […]

- Dissolution and permeability kinetics, comparison: slower
Structure (SMILES): CCC(C)n1ncn(-c2ccc(N3CCN(c4ccc(OCC5COC(Cn6cncn6)(c6ccc(Cl)cc6Cl)O5)cc4)CC3)cc2)c1=O (stereo not shown) [Pure ITZ, Itraconazole]
